Source: patent US11266674B2, “Pharmaceutical composition for tumor treatment or prevention, method, and use thereof” (SICHUAN KELUN-BIOTECH BIOPHARMACEUTICAL CO., LTD., priority 2017, dated 2022)
“And” between values parts separate entries of the source, which are not always exact repeats. Equal entries are not always repeated.

Tests used:
[1] = tested on: mouse colon cancer MC38 cells expressing humanized PD-L1 (hPD-L1-MC38); assay: In vivo efficacy on subcutaneous xenograft of mouse colon cancer hPD-L1-MC38 cells in C57BL/6J mice; settings: Day 28; compound 1.5 mg/kg p.o. every day, Tecentriq 10 mg/kg i.p. once every 2 days, combination 1.5 + 10 mg/kg
Method: This example aimed to evaluate the in vivo efficacy of the pharmaceutical combination of the present invention in a C57BL/6J mouse model with subcutaneous xenograft of mouse colon cancer hPD-L1-MC38 cells expressing humanized PD-L1.
(§1) hPD-L1-MC38 cells were cultured as a monolayer in vitro, and the culture conditions were 1640 culture medium supplemented with 10% Fetal Bovine Serum, and incubation in an incubator at 37° C. and 5% CO2. The cells were subcultured by treatment with routine trypsin-EDTA digestion three times a week.
0.1 mL of a PBS resuspension containing 2×10^5 hPD-L1-MC38 cells was inoculated subcutaneously at the right scapula of each mouse, and the grouping of animals was performed on the day of inoculation.
(§2) 5 g of sodium carboxymethyl cellulose was weighed and placed in a 1000 mL wide-mouth bottle, 800 mL of ultrapure water was added, and the mixture was stirred to effect a solution, the volume of which was then filled up to 1000 mL, thereby obtaining the vehicle.
(§3) An appropriate amount of the 4′-thionucleoside phosphamide derivative compound in the present invention was weighed, a certain amount of the vehicle was added, and a uniform suspension was obtained after mixing.
An appropriate amount of the hPD-L1 inhibitor (Atezolizumab, trade name: Tecentriq® purchased from Roche Corporation, WHO Pharmaceutical Information (International Nonproprietary Name for Pharmaceutical Substances), Recommended INN: List 74, Vol. 29, No. 3, 2015 (see page 387)) was taken, physiological saline was added to obtain a solution of Tecentriq® at a concentration of 1 mg/mL.
C57BL/6J mice were inoculated with hPD-L1-MC38 cells, randomized into groups (8 mice per group), and treated by administration on the same day of the inoculation. The dosing volume was 10 mL/kg (in the group treated with the drug combination, the two drugs were administered individually at an interval of 4 hours). The 4′-thionucleoside phosphamide derivative compound in the present invention was administered by oral gavage (p.o.) every day for 4 weeks, and Tecentriq was administered intraperitoneally (i.p.) once every 2 days for 4 weeks. The tumor weight was measured.
The anti-tumor effect was evaluated by the measured tumor weight, and the method of measuring tumor weight and its evaluation were the same as those described in Example 1.

[2] = tested on: human hepatoma Hep3B-luc cells; assay: In vivo efficacy on orthotopic liver xenograft of human hepatoma Hep3B-luc cells in BALB/c nude mice; settings: compound 1.5 mg/kg, Sorafenib 30 mg/kg, combination 1.5 + 30 mg/kg; for The average bioluminescence value of tumor (photons/sec) Day 0: Day 0, at grouping (baseline); for T/Cfluorescence (%) / T/Ctumor weight (%) / TGIfluorescence (%) / TGItumor weight (%) / The average bioluminescence value of tumor (photons/sec) Day 28 / Tumor weight: Day 28, p.o. every day
Method: This example aimed to evaluate the in vivo efficacy of the pharmaceutical combination of the present invention in a BALB/c nude mouse model with human hepatoma Hep3B-luc cell orthotopic xenografts.
as §1, with “Human hepatoma Hep3B-luc” for “hPD-L1-MC38”, “EMEM” for “1640”, “twice” for “three times”, “week. When cell saturation was 80-90%, the number met the requirement, and the cells were harvested and counted.” for “week.”
20 μl of the cell suspension (PBS:Matrigel=1:1) containing about 3×10^6 Hep3B-Luc cells was injected into the left lobe of the liver of BALB/c-nude mice.
as §2, §3
(§4) An appropriate amount of Sorafenib was weighed, and dissolved by adding polyoxyethylene castor oil. Ethanol was added and evenly mixed, followed by addition of physiological saline, thereby obtaining a uniform suspension.
After inoculation, the tumor growth was assessed by real-time IVIS fluorescence imaging, and mice bearing a tumor with a bioluminescence value of about 1E+8 photons/sec were selected, and randomized into groups (10 mice per group). The dosing volume was 10 mL/kg (in the group treated with the drug combination, the two drugs were administered individually at an interval of 4 hours), and the administration was performed by oral gavage (p.o.) every day for 4 weeks. The tumor volume and tumor weight were measured and recorded by IVIS bioluminescence.
The anti-tumor effect was evaluated by measuring the bioluminescence value, which reflects the tumor volume. The relative bioluminescence value (RB) was calculated by the measured average bioluminescence value, RB=Bt/B0, wherein B0 is the average bioluminescence value measured at the time of grouping for administration (i.e., Day 0); Bt is the average bioluminescence value measured on Day t. The anti-tumor efficacy was evaluated by tumor growth inhibition TGIfluorescence (%) and T/Cfluorescence (%). The equations for calculation are as follows: T/Cfluorescence(%)=TRB/CRB×100%; TGIfluorescence(%)=100%−T/Cfluorescence(%)
wherein TRB and CRB are respectively the relative fluorescence values (RB) of the treatment group and vehicle group.
The anti-tumor efficacy was evaluated by TGIfluorescence% or T/Cfluorescence%.
The anti-tumor effect was evaluated by tumor weight according to a method same as that described in Example 1.
(3) The Criteria for Determining Synergism were the Same as in Example 1.

[3] = tested on: human hepatoma Hep3B cells; assay: In vivo efficacy on subcutaneous xenograft of human hepatoma Hep3B cells in NU/NU nude mice; settings: compound 1.5 mg/kg, Sorafenib 30 mg/kg, combination 1.5 + 30 mg/kg; for Tumor volume (mm^3) Day 0: Day 0, at grouping (baseline)
Method: (§5) This example aimed to evaluate the in vivo efficacy and tolerability of the pharmaceutical combination of the present invention in a NU/NU nude mouse model with human hepatoma Hep3B cell subcutaneous xenografts.
as §1, with “Human hepatoma Hep3B” for “hPD-L1-MC38”, “EMEM” for “1640”, “twice” for “three times”
0.2 mL of a cell suspension (PBS:Matrigel=1:1) containing 1×10^6 Hep3B was inoculated subcutaneously into the right flank of each mouse. After the inoculated tumor reached an average size in the range of 100-200 mm^3, the grouping of animals was performed.
as §2, §3, §4
(§6) Mice bearing a tumor having a volume of 100-200 mm^3 were selected, and randomized into groups (8 mice per group). The dosing volume was 10 mL/kg (in the group treated with the drug combination, the two drugs were administered individually at an interval of 4 hours), and the administration was performed by oral gavage (p.o.) every day for 20 days. The tumor volume, body weight of the animals and tumor weight were measured.
(1) The Anti-Tumor Effect was Evaluated by Measuring the Tumor Volume.
The equation for calculating the tumor volume is as follows: V=0.5a×b^2, wherein a and b respectively represent the major and minor diameters of a tumor.
RTV=Vt/V0; wherein V0 is the average tumor volume measured at the time of grouping for administration (i.e., Day 0); and Vt is the average tumor volume measured on Day t.
The anti-tumor efficacy was evaluated by tumor growth inhibition TGIvolume (%) and T/Cvolume (%). T/Cvolume (%)=TRTV/CRTV×100%; TGIvolume (%)=100%−T/Cvolume (%); wherein TRTV and CRTV are respectively RTVs of the treatment group and vehicle group at the end of the test.
TGItumor weight (%) and T/Ctumor weight (%) were calculated based on tumor weight, and were used to evaluate the tumor inhibitory effect. The equation for calculation is as follows: T/Ctumor weight(%)=WTt/WCt×100%; TGItumor weight(%)=100%−T/Ctumor weight(%);
WTt is the average tumor weight in the treatment group at the end of the test; and WCt is the average tumor weight in the vehicle group at the end of the test.
The synergism was evaluated by Jin's equation q=EA+B/(EA+EB−EA×EB), wherein EA+B represents the efficacy achieved by the combination, and EA or EB represents the efficacy achieved by individual administration. In the present invention, the efficacy indicated in the equation refers to TGI %. When q<0.85, the combination administration is considered to achieve an antagonistic effect; when q=0.85-1.15, the combination administration is considered to achieve an additive effect; and when q>1.15, the combination administration is considered to achieve a synergistic effect.

[4] = Tolerability by body weight change of Hep3B cell tumor-bearing NU/NU nude mice; type: in vivo, mouse
Method: as §5, §6
(2) The Animal's Tolerance to a Drug was Evaluated by Animal Body Weight Change.
The method for calculating the animal body weight change (%) is as follows: (Wt−W0)/W0×100%; W0: the animal's body weight at the time of grouping for administration (i.e., Day 0); Wt: the animal's body weight on day t of the test.
Body weight change in the animals tested serve as a reference indicator for determining drug tolerance.

| Compound | T/Ctumor weight (%) [1] | TGItumor weight (%) [1] | Tumor weight [1] | The average bioluminescence value of tumor (photons/sec) Day 0 [2] | T/Cfluorescence (%) [2] | T/Ctumor weight (%) [2] | TGIfluorescence (%) [2] | TGItumor weight (%) [2] | The average bioluminescence value of tumor (photons/sec) Day 28 [2] | Tumor weight [2] | Tumor volume (mm^3) Day 0 [3] | T/Ctumor weight (%) ([3]; Day 20, p.o. every day) | T/Cvolume (%) ([3]; Day 20, p.o. every day) | TGItumor weight (%) ([3]; Day 20, p.o. every day) | TGIvolume (%) ([3]; Day 20, p.o. every day) | Tumor weight ([3]; Day 20, p.o. every day) | weight loss ([4]; Day 20, Sorafenib 30 mg/kg p.o. every day, printed as loss) | Body weight change (%) ([4]; Day 20, p.o. every day, compound 1.5 mg/kg, Sorafenib 30 mg/kg, combination 1.5 + 30 mg/kg, error range ±0.2%) | Tumor volume (mm^3) Day 20 ([3]; Day 20, p.o. every day) |
| --- | --- | --- | --- | --- | --- | --- | --- | --- | --- | --- | --- | --- | --- | --- | --- | --- | --- | --- | --- |
| Atezolizumab [Tecentriq] | 73.12% | 26.88% | 2.72 g and 2.72 ± 0.44 g | – | – | – | – | – | – | – | – | – | – | – | – | – | – | – | – |
| CC(C)OC(=O)C(C)NP(=O)(OCC1SC(n2ccc(N)nc2=O)C(F)C1O)Oc1ccccc1 (centres unmarked) | 95.16% | 4.84% | 3.54 g and 3.54 ± 0.41 g | 1.09E+8 photons/sec | 103.43% | 77.93% | −3.43% | 22.07% | 2.41E+10 photons/sec | 3.46 g and 3.46 ± 1.17 g | 137.67 ± 7.75 mm^3 | 61.02% | 65.25% | 38.98% | 34.75% | 1.19 g and 1.19 ± 0.25 g | – | – | – |
| CNC(=O)c1cc(Oc2ccc(NC(=O)Nc3ccc(Cl)c(C(F)(F)F)c3)cc2)ccn1 [Sorafenib] | – | – | – | 1.09E+8 photons/sec | 64.81% | 31.53% | 35.19% | 68.47% | 1.51E+10 photons/sec | 1.40 g and 1.40 ± 0.82 g | 137.77 ± 7.92 mm^3 | 38.97% | 42.86% | 61.03% | 57.14% | 0.76 g and 0.76 ± 0.17 g | 8.31% | −8.31% | 912.68 mm^3 and 912.68 ± 173.12 mm^3 |
